Experimental data as given in ChEMBL document CHEMBL1212798, “High concentration of raltegravir in semen of HIV-infected men: results from a substudy of the EASIER-ANRS 138 trial” (2010).

Key:
Type in all cases: functional
[1] = system: Human immunodeficiency virus 1; experiment: Antiviral activity against HIV1-infected in human assessed as decrease in plasma viral RNA level measured after 9 hrs post dose
[2] = system: Human immunodeficiency virus 1; experiment: Antiviral activity against HIV1
[3] = system: Human immunodeficiency virus 1; experiment: Antiviral activity against HIV1-infected in human assessed as decrease in semen viral RNA level measured after 5 hrs post dose

Cc1nnc(C(=O)NC(C)(C)c2nc(C(=O)NCc3ccc(F)cc3)c(O)c(=O)n2C)o1 [RALTEGRAVIR]
Activity [1]: 50 mL⁻¹ | Virucidal [2]: 14.6 ng/mL | Activity [3]: 100 mL⁻¹
